# Laboratory results: PMC12051620, “Molecular basis underlying the specificity of an antagonist AA92593 for mammalian melanopsins” (The Journal of Biological Chemistry, 2025)
# Target: T1, belcheri melanopsin WT (Branchiostoma belcheri, UniProt Q4R1I4)
# T1 construct: expressed in transfected cells; host or cells: COS-1
# Experiment: GsX GloSensor assay with Gsα/q11
# Type: cell-based
# Conditions: 16.7 μM AA92593, COS-1 cells
# Description: Non-mammalian-type melanopsins were successfully converted into AA92593-susceptible types by introducing Phe-94^2.61/Ser-188^ECL2/Ser-269^6.52 or Phe-207^5.42 (Fig. 6). We attempted to extend the functional conversion targets to invertebrate melanopsin (see Fig. S2). […] We assessed the susceptibility of belcheri and lanceolatum melanopsins to AA92593 using the GsX GloSensor assay with Gsα/q11. In the absence of AA92593, the belcheri melanopsin produced smaller light-dependent cAMP responses than the other melanopsins assessed in this study (Fig. 7A), whereas the lanceolatum melanopsin produced robust cAMP responses upon light illumination (Fig. 7B). […] On the other hand, responses by the lanceolatum melanopsin were insensitive to the antagonist (Fig. 7B), similar to non-mammalian-type melanopsins (Fig. 6, A and D). […]
# For GloSensor assay, opsins, GloSensor assay sensor (coded by pGlo-22F), and NanoBiT-tagged G proteins were transiently expressed in COS-1 cells (kindly provided from Dr David Farrens, Oregon Health and Science University) using PEI as described previously ([24], [52]). […] For GFP-fluorescence microscopy, a 35-mm cell culture dish (IWAKI) was transfected with 2 μg melanopsin-GFP plasmid and 8 μg PEI in 400 μl Opti-mem and 1.2 ml D-MEM. […]
# T1 sequence (Q4R1I4 1-410 limits assumed): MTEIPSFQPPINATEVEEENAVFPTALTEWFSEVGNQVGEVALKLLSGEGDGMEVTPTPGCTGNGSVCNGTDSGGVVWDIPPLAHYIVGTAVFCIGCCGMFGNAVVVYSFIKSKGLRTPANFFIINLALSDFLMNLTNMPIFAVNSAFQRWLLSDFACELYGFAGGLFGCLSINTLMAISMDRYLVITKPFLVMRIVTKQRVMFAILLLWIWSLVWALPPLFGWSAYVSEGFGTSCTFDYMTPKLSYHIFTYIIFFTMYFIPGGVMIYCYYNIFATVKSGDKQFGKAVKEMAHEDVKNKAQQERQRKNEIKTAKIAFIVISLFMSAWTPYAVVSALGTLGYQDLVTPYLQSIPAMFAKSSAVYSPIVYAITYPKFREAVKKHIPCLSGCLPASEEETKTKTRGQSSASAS
compound,measurement,value
COc1ccc(S(=O)(=O)N2CCCCC2)cc1C [AA92593],reduction of light-induced cellular responses by the addition of AA92593,~34%
